9 compounds from patent publication US6184388A, “Substituted aminocycloalkylpyrrolidine derivatives and cis-substituted aminocycloalkylpyrrolidine derivatives” (Daiichi Pharmaceutical Co., Ltd., priority 1995, dated 2001) can be followed below.

Converted amounts (≈) assume the structure as drawn. Counter-ions that a name gives are not always drawn. Bounds are passed on as bounds.

Data set [1] concerns Slc:ddy five week male mice. The data set can be described thus: acute toxicity, intravenous, mice. It is filed as in vivo. As to conditions: for acute toxicity result compared with the table above: stated in words. How it is done: A solution of 5-amino-7-[4-(R)-(1-aminocyclopropyl)-3-(S)-fluoro-1-pyrrolidinyl]-6-fluoro-1-[2-(S)-fluoro-1-(R)-cyclopropyl]-1,4-dihydro-8-methyl-4-oxoquinoline-3-carboxylic acid (abbreviated as cis) hydrochloride of Example 15 or 5-amino-7-[4-(R)-(1-aminocyclopropyl)-3-(R)-fluoro-1-pyrrolidinyl]-6-fluoro-1-[2-(S)-fluoro-1-(R)-cyclopropyl]-1,4-dihydro-8-methyl-4-oxoquinoline-3-carboxylic acid (abbreviated as trans) hydrochloride in distilled water for injection was administered intravenously to Slc:ddy five week male mice (five mice per group) and the symptoms are observed.

In data set [2] the test system is Ps. maltophilia, IID-1275. The data set can be described thus: antimicrobial activity (MIC), standard method of the Japan Society of Chemotherapy. The data set is classed as cell-based. As to conditions: for MIC: Stenotrophomonas maltophilia, IID1275, IID-1275 (Table 5: X. maltophilia, IID-1275), read-out: minimum inhibitory concentration (MIC). How it is done:
(§1) Examples of the first and second aspects of the present invention are given below by way of illustration and not by way of limitation. In this regard, the antibacterial and antimicrobial activities of the compounds of interest were measured in accordance with the standard method specified by the Japan Society of Chemotherapy. The results are shown in Tables 1 to 5 as a minimum inhibitory concentration (MIC, μg/ml). Unless otherwise indicated, all percents (%) are by weight.

Another data set concerns E. coli, NIHJ. Described as above. The data set is classed as cell-based. As to conditions: Escherichia coli, read-out: minimum inhibitory concentration (MIC). The protocol: as §1
The mark [3] stands for this setting: 150 mg/kg, *: died immediately after administration, test stopped when second mouse died.

Regarding `C[C@H]1COc2c(N3C[C@@H](F)[C@@H](C4(N)CC4)C3)c(F)cc3c(=O)c(C(=O)O)cn1c23` [Example 17, 10-[4-(R)-(1-Aminocyclopropyl)-3-(S)-fluoro-1-pyrrolidinyl]-9-fluoro-2,3-dihydro-3-(S)-methyl-7-oxo-7H-pyrido[1,2,3-de][1,4]benzoxazine-6-carboxylic acid], the “acute toxicity result compared with the table above” value in data set [1] (150 mg/kg) is “same result”. Turning to `Cc1c(N2C[C@@H](F)[C@@H](C3(N)CCC3)C2)c(F)c(N)c2c(=O)c(C(=O)O)cn([C@@H]3C[C@@H]3F)c12` (single isomer, unassigned; isomer b) [Example 13], the “acute toxicity result compared with the table above” value in data set [1] (150 mg/kg) is listed as “same result”. The “minimum inhibitory concentration (MIC)” value in data set [2] (IID-1275 (Table 5: X. maltophilia, IID-1275)) worked out at 0.20 µg/mL (≈ 0.444 µM). Regarding `COc1c(N2C[C@@H](F)[C@@H](C3(N)CC3)C2)c(F)c(N)c2c(=O)c(C(=O)O)cn([C@@H]3C[C@@H]3F)c12` [Example 16, 5-Amino-7-[4-(R)-(1-aminocyclopropyl)-3-(S)-fluoro-1-pyrrolidinyl]-6-fluoro-1-[2-(S)-fluoro-1-(R)-cyclopropyl]-1,4-dihydro-8-methoxy-4-oxoquinoline-3-carboxylic acid], in data set [1] (150 mg/kg), the “acute toxicity result compared with the table above” value is “same result”. Besides, the MIC in data set [2] is 0.2 µg/mL (≈ 0.442 µM). On to `C[C@H]1COc2c(N3C[C@@H](F)[C@@H](C4(N)CC4)C3)c(F)cc3c(=O)c(C(=O)O)cn1c23.Cl` [Example 19, 10-[4-(R)-(1-Aminocyclopropyl)-3-(S)-fluoro-1-pyrrolidinyl]-9-fluoro-2,3-dihydro-3-(S)-methyl-7-oxo-7H-pyrido[1,2,3-de][1,4]benzoxazine-6-carboxylic acid hydrochloride], for which the MIC in data set [2] was 0.39 µg/mL. Consider `Cc1c(N2C[C@@H](F)[C@@H](C3(N)CC3)C2)c(F)c(N)c2c(=O)c(C(=O)O)cn([C@@H]3C[C@@H]3F)c12` [Example 15, 5-Amino-7-[4-(R)-(1-aminocyclopropyl)-3-(S)-fluoro-1-pyrrolidinyl]-6-fluoro-1-[2-(S)-fluoro-1-(R)-cycloproyl]-1,4-dihydro-8-methyl-4-oxoguinoline-3-carboxylic acid hydrochloride], for which, in data set [1] (setting [3]), the Number of death was 0/5. In data set [2], the MIC was 0.05 µg/mL. With `COc1c(N2C[C@@H](F)[C@@H](C3(N)CC3)C2)c(F)cc2c(=O)c(C(=O)O)cn([C@@H]3C[C@@H]3F)c12` [Example 12, 7-[4-(R)-(1-Aminocyclopropyl)-3-(S)-fluoro-1-pyrrolidinyl]-6-fluoro-1-[2-(S)-fluoro-1-(R)-cyclopropyl]-1,4-dihydro-8-methoxy-4-oxoguinoline-3-carboxylic acid], in data set [1] (150 mg/kg), the “acute toxicity result compared with the table above” value is reported as “same result”. For the same compound, the MIC with E. coli, NIHJ is at most 0.013 µg/mL. For `Cc1c(N2C[C@H](F)[C@@H](C3(N)CC3)C2)c(F)c(N)c2c(=O)c(C(=O)O)cn([C@@H]3C[C@@H]3F)c12` [Example 5, 5-Amino-7-[4-(R)-(1-aminocyclopropyl)-3-(R)-fluoro-1-pyrrolidinyl]-6-fluoro-1-[2-(S)-fluoro-1-(R)-cyclopropyl]-1,4-dihydro-8-methyl-4-oxoquinoline-3-carboxylic acid hydrochloride], the Number of death in data set [1] (50 mg/kg) is 0/5; in data set [1] (100 mg/kg, *: died immediately after administration, test stopped when second mouse died) it was 2/2; in data set [1] (setting [3]), 2/2. With `C[C@H]1COc2c(N3C[C@@H](F)[C@@H](C4(N)CC4)C3)c(F)c(N)c3c(=O)c(C(=O)O)cn1c23` [Example 21, 8-Amino-10-[4-(R)-(1-aminocyclopropyl)-3-(S)-fluoro-1-pyrrolidinyl]-9-fluoro-2,3-dihydro-3-(S)-methyl-7-oxo-7H-pyrido[1,2,3]-de[1,4]benzoxazine-6-carboxylic acid], the “acute toxicity result compared with the table above” value in data set [1] (150 mg/kg) is given as “same result”. Besides, the MIC in data set [2] came to 0.39 µg/mL (≈ 0.928 µM). In the case of `Cc1c(N2C[C@@H](CO)[C@@H](C3(N)CC3)C2)c(F)c(N)c2c(=O)c(C(=O)O)cn(C3CC3)c12` (relative stereo) [Example 14, 5-Amino-7-[cis-4-(1-aminocyclopropyl)-3-hydroxymethyl-1-pyrrolidinyl]-1-cyclopropyl-6-fluoro-1,4-dihydro-8-methyl-4-oxoguinoline-3-carboxylic acid], in data set [1] (150 mg/kg), the “acute toxicity result compared with the table above” value is given as “same result”.
